Each structure is given as a SMILES string. pIC50: −log10 of the molar value. Where only a bound is given, the exact number is not on record here.

This is an account of results in patent publication US11873290B2, “Pyridazinone compounds and uses thereof” (Edgewise Therapeutics, Inc., priority 2018, dated 2024).

Assay [1] has as its system zebrafish model of DMD. The following applies: embryos from zebrafish model of DMD; cited from earlier work.
Assay [2] has as its target skeletal myofibrils (myosin ATPase activity). The experiment in a line: Skeletal Myofibril ATPase Assay. Format: biochemical. The following applies: PK-LDH coupled, absorbance at 340 nm. The method in brief:
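Skeletal myofibril ATPase measured by PK-LDH-coupled NADH depletion at 340 nm, read every 1.5–2 min for 1 h; pCa buffer with PIPES/CaCl2/EGTA, pH 7.0. Rate taken as max–min absorbance, normalised to 1% DMSO vehicle (100%) and no change (0%); IC50 from four-parameter fit, bottom ≥0.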

For the compound `Cc1ccc(S(=O)(=O)NCc2ccccc2)cc1` [BTS, N-benzyl-p-tolyl-sulfonamide], the “Protection from pathological muscle derangement” value in assay [1] is on record as “protect muscles from pathological muscle derangement”.
`COc1ccc(-c2ccc(=O)n(Cc3nc(-c4ccc(OC)cc4)no3)n2)cc1` [Compound 315, 6-(4-methoxyphenyl)-2-((3-(4-methoxyphenyl)-1,2,4-oxadiazol-5-yl)methyl)pyridazin-3(2H)-one] showed a pIC50 in assay [2] of over 5.00.
Same read-out and setting: the result for `Cc1nc(Cn2nc(-c3ccc(Cl)cc3)ccc2=O)no1` [Compound 350, 6-(4-chlorophenyl)-2-((5-methyl-1,2,4-oxadiazol-3-yl)methyl)pyridazin-3(2H)-one] reads under 4.00; that for `Cc1ncc(-c2ccc(=O)n(Cc3cncc(F)c3)n2)cn1` [Compound 351], 4.00 to 5.00.
Same read-out and setting: the result for `C/C=C\c1ncc(-c2ccc(=O)n(Cc3cncc(F)c3)n2)cn1` [Compound 352, (Z)-2-((5-fluoropyridin-3-yl)methyl)-6-(2-(prop-1-en-1-yl)pyrimidin-5-yl)pyridazin-3(2H)-one] reads over 5.00.
